Experimental data from patent EP4420661B1, “SMALL MOLECULES TARGETING GLYCOPROTEIN VI AS ANTIPLATELET AGENTS FOR USE IN THE PREVENTION AND/OR TREATMENT OF THROMBOSIS AND ASSOCIATED PATHOLOGIES” (Universidade de Santiago de Compostela, priority 2023, dated 2024).

Legend:
Format in all cases: in vitro ADME
[1] = plasma protein binding, Rapid Equilibrium Dialysis (RED), rat; conditions: 4h at 37°C
Procedure: (§1) Plasma from Seralab was employed in the assay and was carried out by employing Rapid Equilibrium Dialysis (RED) from Thermo Scientific.
(§2) The compounds were dissolved at 5 µM in plasma and added to the corresponding insert of the RED device. Dialysis buffer was added to the corresponding insert of the RED device. Plate was incubated for 4h at 37°C.
(§3) After the incubation period 50 µL aliquots of each chamber were transferred to empty vials. 50 µL of dialysis buffer were added to the plasma samples and 50 µL of plasma were added to the buffer samples. 300 µL of acetonitrile were added to all the samples and centrifuged at 4000 rpm 100 µL aliquots of the supernatants were transferred to a LC analysis plate. Samples were analyzed in a UPLC/MS/MS. Stationary phase: Acquity UPLC® BEHC18 1,7 µm (2.1 mm x 50 mm) (Waters). Gradient: A (H2O + 0.1% Formic acid); B (ACN + 0.1% Formic acid); Flow: 0.6mL/min Table 8: UPLC gradient / Protein binding assay
(§4) The chromatographic equipment employed was an ACQUITY UPLC / Xevo TQD System. Compound concentrations were calculated from the MS peak areas. Table 9: Plasma protein binding of the compounds of formula (I) in rat, mice, dogs and humans / (*) low recovery

[2] = tested on: Plasma protein; assay: as above; conditions: 5 µM, 4h at 37°C
Procedure: as §1, §2, §3, §4

[3] = plasma protein binding, Rapid Equilibrium Dialysis (RED), human; conditions: 4h at 37°C
Procedure: as §1, §2, §3, §4

[4] = tested on: Plasma protein; assay: as above; conditions: 5 µM, 4h at 37°C
Procedure: as §1, §2, §3, §4

[5] = plasma protein binding, Rapid Equilibrium Dialysis (RED), mouse; conditions: 4h at 37°C, (*) low recovery for (If)
Procedure: as §1, §2, §3, §4

[6] = tested on: Plasma protein; assay: as above; conditions: 5 µM, 4h at 37°C, (*) low recovery for (If)
Procedure: as §1, §2, §3, §4

[7] = plasma protein binding, Rapid Equilibrium Dialysis (RED), dog; conditions: 4h at 37°C
Procedure: as §1, §2, §3, §4

[8] = tested on: Plasma protein; assay: as above; conditions: 5 µM, 4h at 37°C
Procedure: as §1, §2, §3, §4

Q: For `O=C1NC(=O)C(c2ccccc2)(c2ccccc2)N1` [Phenytoin, reference compound], which fraction unbound at 4 h, 5 µM [1] is on record?
A: 0.138

Q: And the Unbound fraction [2]?
A: 13.76%

Q: What about the fraction unbound at 4 h, 5 µM [3] of the same molecule?
A: 0.178

Q: What about the Unbound fraction [4] of the same molecule?
A: 17.77%

Q: And the fraction unbound at 4 h, 5 µM [5]?
A: 0.179

Q: What about the Unbound fraction [6] of the same molecule?
A: 17.94%

Q: What about the fraction unbound at 4 h, 5 µM [7] of the same molecule?
A: 0.189

Q: And the Unbound fraction [8]?
A: 18.94%
